Assay results: ChEMBL document CHEMBL4043204, “meso-Dihydroguaiaretic acid derivatives with antibacterial and antimycobacterial activity” (Bioorg Med Chem, 2017)
Values after ≈ are worked out from the molar mass of the structure shown. Active and inactive are the calls of the source. The rule behind the calls is not given here.

Assays:
Jonesia denitrificans = experiment: Antibacterial activity against Listeria denitrificans; format: functional
Salmonella enterica = experiment: Antibacterial activity against Salmonella choleraesuis; format: functional
Bacillus subtilis = experiment: Antibacterial activity against Bacillus subtilis; format: functional
[1] = tested on: Stenotrophomonas maltophilia; experiment: Antibacterial activity against trimethoprim-sulfamethoxazole-resistant Stenotrophomonas maltophilia assessed as inhibition of microbial growth up to 50 ug/ml incubated for 24 hrs by microdilution assay; format: functional
[2] = Selectivity index, ratio of IC50 for cytotoxicity against African green monkey Vero cells to MIC for Mycobacterium tuberculosis H37Rv ATCC 27294; format: toxicity, cell-based; details: read-out: Selectivity Index
Escherichia coli [3] = experiment: Antibacterial activity against oxacillin-resistant Escherichia coli OXA-48 assessed as inhibition of microbial growth up to 50 ug/ml incubated for 24 hrs by microdilution assay; format: functional
[4] = tested on: Staphylococcus haemolyticus; experiment: Antibacterial activity against linezolid-resistant Staphylococcus haemolyticus 2975 assessed as inhibition of microbial growth incubated for 24 hrs by microdilution assay; format: functional; details: Staphylococcus haemolyticus, 2975, 24 h
Escherichia coli [5] = experiment: Antibacterial activity against extended-spectrum beta-lactamase-positive Escherichia coli (14-2081) assessed as inhibition of microbial growth up to 50 ug/ml incubated for 24 hrs by microdilution assay; format: functional
Enterococcus faecium = experiment: Antibacterial activity against vancomycin-resistant Enterococcus faecium (10-984) assessed as inhibition of microbial growth incubated for 24 hrs by microdilution assay; format: functional
[6] = tested on: Mycobacterium tuberculosis; experiment: Antimycobacterial activity against Mycobacterium tuberculosis H37Rv ATCC 27294 assessed as inhibition of mycobacterial growth incubated for 2 weeks by MABA method; format: functional; details: for MIC: Mycobacterium tuberculosis, H37Rv ATCC 27294, 336 h
Providencia rettgeri = experiment: Antibacterial activity against NDM-1 positive Providencia rettgeri assessed as inhibition of microbial growth up to 50 ug/ml incubated for 24 hrs by microdilution assay; format: functional
Acinetobacter baumannii = experiment: Antibacterial activity against carbapenem-resistant Acinetobacter baumannii (12-666) assessed as inhibition of microbial growth up to 50 ug/ml incubated for 24 hrs by microdilution assay; format: functional
Klebsiella pneumoniae [7] = experiment: Antibacterial activity against extended-spectrum beta-lactamase-positive Klebsiella pneumoniae (14-2081) assessed as inhibition of microbial growth up to 50 ug/ml incubated for 24 hrs by microdilution assay; format: functional
Staphylococcus aureus [8] = experiment: Antibacterial activity against methicillin-resistant Staphylococcus aureus (14-2095) assessed as inhibition of microbial growth incubated for 24 hrs by microdilution assay; format: functional
[9] = Selectivity index, ratio of IC50 for cytotoxicity against African green monkey Vero cells to MIC for antibacterial activity against methicillin-resistant Staphylococcus aureus (14-2095)
Klebsiella pneumoniae [10] = experiment: Antibacterial activity against NDM-1 positive Klebsiella pneumoniae (14-3335) assessed as inhibition of microbial growth up to 50 ug/ml incubated for 24 hrs by microdilution assay; format: functional
Pseudomonas aeruginosa = experiment: Antibacterial activity against carbapenem-resistant Pseudomonas aeruginosa (13-1391) assessed as inhibition of microbial growth up to 50 ug/ml incubated for 48 hrs by microdilution assay; format: functional
[11] = tested on: Staphylococcus epidermidis; experiment: Antibacterial activity against linezolid-resistant Staphylococcus epidermidis (14-583) assessed as inhibition of microbial growth incubated for 24 hrs by microdilution assay; format: functional
Vero = experiment: Cytotoxicity against African green monkey Vero cells assessed as reduction in cell viability incubated for 24 hrs by trypan blue staining based assay; details: Chlorocebus sabaeus
Staphylococcus aureus [12] = experiment: Antibacterial activity against Staphylococcus aureus; format: functional
Staphylococcus aureus [13] = experiment: Antibacterial activity against methicillin-resistant Staphylococcus aureus; format: functional

Structure (SMILES): COc1cc(C[C@H](C)[C@@H](C)Cc2ccc(O)c(OC)c2)ccc1O
- MIC (Jonesia denitrificans): 400 µM (≈ 132 µg/mL)
- MIC (Salmonella enterica): 3100 µM (≈ 1020 µg/mL)
- MIC (Bacillus subtilis): 1600 µM (≈ 529 µg/mL)

Structure (SMILES): COc1cc(C[C@@H](C)[C@@H](C)Cc2ccc(OC(=O)c3ccccn3)c(OC)c2)ccc1O (racemic)
- Activity [1]: inactive
- selectivity ratio [2]: 1.3
- Activity (Escherichia coli [3]): inactive
- MIC [4]: > 50 µg/mL
- Activity (Escherichia coli [5]): inactive
- MIC (Enterococcus faecium): > 50 µg/mL
- -logMIC [6]: 3.87
- MIC [6]: 50 µg/mL (≈ 115 µM)
- Activity (Providencia rettgeri): inactive
- Activity (Acinetobacter baumannii): inactive
- Activity (Klebsiella pneumoniae [7]): inactive
- MIC (Staphylococcus aureus [8]): 25 µg/mL
- Selectivity Index [9]: 2.6
- Activity (Klebsiella pneumoniae [10]): inactive
- Activity (Pseudomonas aeruginosa): inactive
- MIC [11]: > 50 µg/mL
- IC50 (Vero): 65 µg/mL (≈ 149 µM)

Structure (SMILES): COc1cc(C[C@@H](C)[C@H](C)Cc2ccc(O)c(OC)c2)ccc1O [(-)-DIHYDROGUAIARETICACID]
- MIC (Jonesia denitrificans): 400 µM (≈ 132 µg/mL)
- MIC (Bacillus subtilis): 1600 µM (≈ 529 µg/mL)

Structure (SMILES): COc1cc(C[C@@H](C)[C@@H](C)Cc2ccc(O)c(OC)c2)ccc1O [MESODIHYDROGUAIARETIC ACID]
- MIC (Staphylococcus aureus [12]): 1600 µM (≈ 529 µg/mL)
- MIC (Jonesia denitrificans): 1600 µM (≈ 529 µg/mL)
- MIC [6]: 50 µg/mL (≈ 151 µM)
- MIC (Bacillus subtilis): 1600 µM (≈ 529 µg/mL)
- MIC (Staphylococcus aureus [13]): 50 µg/mL (≈ 151 µM)
